Experiment [1] relates to Klebsiella pneumoniae: Ciprofloxacin-resistant isolate, expresses ESBL, clinical isolate (KP-3700). Put plainly: MIC determination (CLSI), KP-3700. Conditions: overnight incubation, lower of duplicate values. In kind it is cell-based. The method, then:
(§1) The in vitro antibacterial activity of compounds described in the Examples was evaluated by minimum inhibitory concentration (MIC) testing according to Clinical and Laboratory Standards Institute (CLSI) Guidelines. See: Clinical and Laboratory Standards Institute. Methods for Dilution Antimicrobial Susceptibility Tests for Bacteria that Grow Aerobically; Approved Standard-Eighth Edition. CLSI document M7-A8 [ISBN 1-56238-689-1]. Clinical and Laboratory Standards Institute, 940 West Valley Road, Suite 1400, Wayne, Pa. 19087-1898 USA, 2006; also Clinical and Laboratory Standards Institute. Performance Standards for Antimicrobial Susceptibility Testing; Twentieth Informational Supplement. CLSI document M100-S20 [ISBN1-56238-716-2]. Clinical and Laboratory Standards Institute.
(§2) The MIC determination is a standard laboratory method for evaluating the antibacterial activity of a compound. The MIC represents the lowest drug concentration that inhibits visible growth of bacteria following overnight incubation. […] Typically, the drug concentration range is broken down into 2-fold increments (e.g. 0.06 μg/mL, 0.12 μg/mL. 0.25 μg/mL, 0.50 μg/mL, 1.0 μg/mL, etc.) and the various drug concentrations are all individually incubated overnight with approximately the same number of bacteria. The MIC is then determined by visually inspecting the drug effect at each concentration, and identifying the lowest drug concentration that has inhibited bacterial growth as compared to the drug free control. Typically, bacteria continue to grow at drug concentrations lower than the MIC and don't grow at concentrations at and above the MIC.
(§3) The MIC values described in Tables 2 and 3 below were derived from assays wherein each test compound was evaluated in duplicate. In cases where the duplicate values varied by 0-2-fold, the lower of the two values was reported below. Generally speaking, if the duplicate values varied by more than 2-fold, the assay was considered non-valid and was repeated until the variation between duplicate runs was ≦2-fold. In line with the CLSI guidelines referred to above, both control organisms and reference compounds were utilized in each MIC assay to provide proper quality control. MIC values generated with these control organisms and reference compounds were required to fall within a defined range for the assay to be considered valid and be included herein. Those skilled in the art will recognize that MIC values can and do vary from experiment to experiment. Generally speaking, it should be recognized that MIC values often vary +/−2-fold from experiment to experiment. While a single MIC is reported for each compound and each microorganism, the reader should not conclude that each compound was only tested once. Several of the compounds were subjected to multiple tests. The data reported in Tables 2 and 3 is reflective of the compounds relative activity and different MICs may have been generated on these occasions in line with the guidelines described above.
(§4) The following bacterial strains were used in these MIC determinations:
(3) Klebsiella pneumoniae: Ciprofloxacin-resistant isolate, expresses extended-spectrum beta-lactamases (ESBL), clinical isolate, labeled as KP-3700 in Table 5.

In experiment [2] the test system is Escherichia coli EC-1: VOGEL, mouse virulent. Put plainly: MIC determination (CLSI), EC-1. In kind it is cell-based. Conditions: Escherichia coli, read-out: EC-1 (MIC). The method, then: as §1, §2, §3, §4
(2) Escherichia coli EC-1: VOGEL, mouse virulent labeled as EC-1 in Table 5;

In experiment [3] the test system is Pseudomonas aeruginosa UI-18: Wild-type (PA-7). Put plainly: MIC determination (CLSI), PA-7. It counts as cell-based. Conditions: Pseudomonas aeruginosa UI-18 wild-type; overnight incubation; lower of duplicate values; read-out: PA-7 (MIC). The method, then: as §1, §2, §3, §4
(4) Pseudomonas aeruginosa UI-18: Wild-type, labeled as PA-7 in Table 5;

Experiment [4] has as its system Acinetobacter baumannii/haemolyticus: Multidrug-resistant clinical isolate (AB-3167). Kind of experiment: MIC determination (CLSI), AB-3167. In kind it is cell-based. The conditions noted are these: Acinetobacter baumannii/haemolyticus multidrug-resistant clinical isolate; overnight incubation; lower of duplicate values; read-out: AB-3167 (MIC). The method, then:
as §1, §2, §3, §4
(1) Acinetobacter baumannii/haemolyticus: Multidrug-resistant clinical isolate labeled as AB-3167 in Table 5;

The target in experiment [5] is T1, Pseudomonas aeruginosa LpxC enzyme (Pseudomonas aeruginosa, UniProt P47205).
T1 construct: made in house; host or cells: E. coli
T1 sequence (P47205 1-303): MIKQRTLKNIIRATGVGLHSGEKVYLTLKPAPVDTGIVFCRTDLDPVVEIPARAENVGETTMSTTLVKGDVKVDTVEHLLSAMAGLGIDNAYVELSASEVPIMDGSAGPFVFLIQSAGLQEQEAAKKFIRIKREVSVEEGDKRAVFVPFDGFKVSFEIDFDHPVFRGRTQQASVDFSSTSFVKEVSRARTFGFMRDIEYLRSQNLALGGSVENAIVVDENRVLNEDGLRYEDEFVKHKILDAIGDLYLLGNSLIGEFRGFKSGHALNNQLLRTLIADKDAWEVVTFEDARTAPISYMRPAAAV
Put plainly: IC50 assay, LpxC enzyme from P. aeruginosa (BioTrove RapidFire mass spectrometry). It counts as biochemical. Here is the method:
In order to assess the compounds biological activity, selected in-vitro assays were conducted on selected compounds of Formula I. One of the assays measured the compounds ability to disrupt the synthesis of lipopolysaccharide, LPS, which is a component of the outer membrane of Gram-negative bacteria. Disruption of this synthesis is lethal to the bacteria. The assay determined the compound's ability to inhibit LpxC, which is the first enzyme in the biosynthetic pathway for LPS (measured as IC50). Additionally, MICs (minimal inhibitory concentrations) were determined for several bacteria. The specific protocols are described below:
A) IC50 Assay, LpxC Enzyme from P. Aeruginosa Labeled as PA LpxC Enzyme IC50):
At the end of 1 hour, 5 ul of 1 N HCl was added to stop the enzyme reaction, the plates were centrifuged, and then processed with the BioTrove Rapidfire HTMS Mass Spectrometry System. A no-enzyme control was used in calculating the IC50 values from the percent conversion values.

[6] abbreviates: P. aeruginosa LpxC enzyme 0.1 nM, 25° C., 1 hour, pH 8.0, read-out: PA: IC50.

≈ marks a conversion by molar mass, not a printed value. Like-named read-outs stand apart in the source and are kept apart here.

As for `C[C@@](CCn1cnc(-c2ccccc2)c1)(C(=O)NO)S(C)(=O)=O` (stereo in doubt) [Example 13, N-hydroxy-2-methyl-2-(methylsulfonyl)-4-(4-phenyl-1H-imidazol-1-yl)butanamide], the “KP-3700 (MIC)” value in experiment [1] was above 64.0 µg/mL. In addition, the minimal inhibitory concentration (MIC) in experiment [2], in experiment [3] and in experiment [4] was above 64 µg/mL in each case.

Consider `C[C@@](CCn1cc(C2=CCCCC2)cn1)(C(=O)NO)S(C)(=O)=O` [Example 1, (2R)-4-[4-(cyclohex-1-en-1-yl)-1H-pyrazol-1-yl]-N-hydroxy-2-methyl-2-(methylsulfonyl)butanamide], for which the “KP-3700 (MIC)” value in experiment [1] worked out at 16 µg/mL. Besides, the minimal inhibitory concentration (MIC) in experiment [2] was 8 µg/mL (≈ 23.4 µM); in experiment [3] it was 1 µg/mL (≈ 2.93 µM); in experiment [4], above 64 µg/mL.

In the case of `C[C@@](CCn1cc(C2CCCCC2)cn1)(C(=O)NO)S(C)(=O)=O` [Example 2, (2R)-4-(4-cyclohexyl-1H-pyrazol-1-yl)-N-hydroxy-2-methyl-2-(methylsulfonyl)butanamide], the “KP-3700 (MIC)” value in experiment [1] was found to be 64 µg/mL. Further, the minimal inhibitory concentration (MIC) in experiment [2] is 32 µg/mL (≈ 93.2 µM); in experiment [3] it was 1 µg/mL (≈ 2.91 µM); in experiment [4] it was above 64 µg/mL. Besides, the IC50 in experiment [5] (setting [6]) came out at 0.752 nM.

Turning to `C[C@@](CCn1cc(C2CCCC2)cn1)(C(=O)NO)S(C)(=O)=O` [Example 3, (2R)-4-(4-cyclopentyl-1H-pyrazol-1-yl)-N-hydroxy-2-methyl-2-(methylsulfonyl)butanamide], the “KP-3700 (MIC)” value in experiment [1] stood at 64 µg/mL. The values for the MIC in experiment [2], in experiment [3] and in experiment [4] were 64 µg/mL (≈ 194 µM), 8 µg/mL (≈ 24.3 µM) and 64 µg/mL (≈ 194 µM), respectively. In experiment [5] (setting [6]), the half-maximal inhibitory concentration (IC50) came to 14.3 nM.

With `Cc1nn(CC[C@](C)(C(=O)NO)S(C)(=O)=O)cc1-c1ccccc1` [Example 4, (2R)—N-hydroxy-2-methyl-4-(3-methyl-4-phenyl-1H-pyrazol-1-yl)-2-(methylsulfonyl)butanamide], in experiment [1], the “KP-3700 (MIC)” value worked out at 32 µg/mL. The minimum inhibitory concentration (MIC) was 8 µg/mL (≈ 22.8 µM) in experiment [2], 8 µg/mL (≈ 22.8 µM) in experiment [3] and above 64 µg/mL in experiment [4]. In experiment [5] (setting [6]), the IC50 stood at 14.6 nM.

On to `Cc1cnn(CC[C@](C)(C(=O)NO)S(C)(=O)=O)c1` [Example 5, (2R)—N-hydroxy-2-methyl-4-(4-methyl-1H-pyrazol-1-yl)-2-(methylsulfonyl)butanamide], for which the “KP-3700 (MIC)” value in experiment [1] was above 64.0 µg/mL. The MIC is above 64 µg/mL in experiment [2], 32 µg/mL (≈ 116 µM) in experiment [3] and above 64 µg/mL in experiment [4]. Moreover, the IC50 in experiment [5] (setting [6]) is above 100 nM.

Take `C[C@@](CCn1cc(-c2ccccc2)cn1)(C(=O)NO)S(C)(=O)=O` [Example 6, (2R)—N-hydroxy-2-methyl-2-(methylsulfonyl)-4-(4-phenyl-1H-pyrazol-1-yl)butanamide]: the “KP-3700 (MIC)” value in experiment [1] was 64 µg/mL. Also, the values for the MIC in experiment [2], in experiment [3] and in experiment [4] were 16 µg/mL (≈ 47.4 µM), 1 µg/mL (≈ 2.96 µM) and above 64 µg/mL, respectively. In experiment [5], this compound yielded an IC50 of 1.61 nM.

Turning to `C[C@@](CCn1cc(C#N)cn1)(C(=O)NO)S(C)(=O)=O` [Example 7, (2R)-4-(4-cyano-1H-pyrazol-1-yl)-N-hydroxy-2-methyl-2-(methylsulfonyl)butanamide], in experiment [1], the “KP-3700 (MIC)” value is above 64.0 µg/mL. The MIC in experiment [2], in experiment [3] and in experiment [4] was above 64 µg/mL throughout. For the same compound, the IC50 in experiment [5] (setting [6]) was 620 nM.

For `C[C@@](CCn1cc(-c2cnccn2)cn1)(C(=O)NO)S(C)(=O)=O` [Example 8, (2R)—N-hydroxy-2-methyl-2-(methylsulfonyl)-4-[4-(pyrazin-2-yl)-1H-pyrazol-1-yl]butanamide], the “KP-3700 (MIC)” value in experiment [1] is above 64.0 µg/mL. Besides, the minimal inhibitory concentration (MIC) in experiment [2], in experiment [3] and in experiment [4] was above 64 µg/mL in each case. In experiment [5] (setting [6]), the IC50 is above 100 nM.

Turning to `C[C@@](CCn1cc(-c2cnc3ccccc3n2)cn1)(C(=O)NO)S(C)(=O)=O` [Example 9, (2R)—N-hydroxy-2-methyl-2-(methylsulfonyl)-4-[4-(quinoxalin-2-yl)-1H-pyrazol-1-yl]butanamide], the “KP-3700 (MIC)” value in experiment [1] is above 64.0 µg/mL. In addition, the MIC in experiment [2], in experiment [3] and in experiment [4] was above 64 µg/mL throughout. The IC50 in experiment [5] (setting [6]) came to 19 nM.

For `C[C@@](CCn1cc(-c2nc3ccccc3o2)cn1)(C(=O)NO)S(C)(=O)=O` [Example 10, (2R)-4-[4-(1,3-benzoxazol-2-yl)-1H-pyrazol-1-yl]-N-hydroxy-2-methyl-2-(methylsulfonyl)butanamide], the “KP-3700 (MIC)” value in experiment [1] is above 64.0 µg/mL. Also, the minimal inhibitory concentration (MIC) in experiment [2], in experiment [3] and in experiment [4] was 32 µg/mL (≈ 84.6 µM) throughout. Besides, the IC50 in experiment [5] (setting [6]) is 13.8 nM.

On to `C[C@@](CCn1cc(-c2ccc(-c3ncco3)cc2)cn1)(C(=O)NO)S(C)(=O)=O` [Example 12, (2R)—N-hydroxy-2-methyl-2-(methylsulfonyl)-4-{4-[4-(1,3-oxazol-2-yl)phenyl]-1H-pyrazol-1-yl}butanamide], for which, in experiment [5] (setting [6]), the IC50 is 0.963 nM.

As to `C[C@@](CCn1cc(-c2ccc(F)c(F)c2F)nn1)(C(=O)NO)S(C)(=O)=O` [Example 18, (2R)-N-hydroxy-2-methyl-2-(methylsulfonyl)-4-[4-(2,3,4-trifluorophenyl)-1H-1,2,3-triazol-1-yl]butanamide], the IC50 in experiment [5] (setting [6]) was determined as 3.29 nM.

In the case of `CC(CCn1cc(CSc2ccc(Br)cc2)nn1)(C(=O)NO)S(C)(=O)=O` (stereo not shown) [Example 25, 4-(4-{[(4-bromophenyl)sulfanyl]methyl}-1H-1,2,3-triazol-1-yl)-N-hydroxy-2-methyl-2-(methylsulfonyl)butanamide], in experiment [5] (setting [6]), the half-maximal inhibitory concentration (IC50) was 10.1 nM.

`CC(CCn1cc(-c2cn(Cc3ccccc3)cn2)cn1)(C(=O)NO)S(C)(=O)=O` (stereo not shown) [Example 83, 4-[4-(1-benzyl-1H-imidazol-4-yl)-1H-pyrazol-1-yl]-N-hydroxy-2-methyl-2-(methylsulfonyl)butanamide]: the half-maximal inhibitory concentration (IC50) in experiment [5] (setting [6]) was above 100 nM.

`CC(CCn1cc(-c2cn(-c3ccc(F)cc3)cn2)cn1)(C(=O)NO)S(C)(=O)=O` (stereo not shown) [Example 89, 4-{4-[1-(4-fluorophenyl)-1H-imidazol-4-yl]-1H-pyrazol-1-yl}-N-hydroxy-2-methyl-2-(methylsulfonyl)butanamide]: the IC50 in experiment [5] (setting [6]) is above 100 nM.

(Values after US8809333B2, “Imidazole, pyrazole, and triazole derivatives useful as antibacterial agents” (Pfizer Inc., priority 2011, dated 2014).)
